Where “and” joins values, the source holds several entries; their conditions need not be identical. Identical values can stand only once. Toxic doses and inconclusive results are not listed. No stated cut-off is given here; in the data, active means T/C of 150% or more; inactive means T/C below 125%.
Test system: L1210 leukemia ip in BDF1 mice, survival T/C
Assay: NCI In Vivo Anticancer Drug Screen. Data for tumor model L1210 Leukemia (intraperitoneal) in B6D2F1 (BDF1) mice
Conditions: endpoint: mean survival time, higher = longer survival
Procedure, shortened: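 Ratio derived from survival: compound-dosed mice over vehicle-dosed mice, all bearing a transplantable tumor.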

[1] = dose: 25.0 mg/kg/injection, schedule: Q01DX009 (ip), vehicle: Klucel (hydroxypropylcellulose) (HPC)
[2] = dose: 25.0 mg/kg/injection, schedule: Q04DX003 (ip), vehicle: Klucel (hydroxypropylcellulose) (HPC)
[3] = dose: 50.0 mg/kg/injection, schedule: Q01DX009 (ip), vehicle: Klucel (hydroxypropylcellulose) (HPC)
[4] = dose: 50.0 mg/kg/injection, schedule: Q04DX003 (ip), vehicle: Klucel (hydroxypropylcellulose) (HPC)
[5] = dose: 100.0 mg/kg/injection, schedule: Q04DX003 (ip), vehicle: saline
[6] = dose: 200.0 mg/kg/injection, schedule: Q04DX003 (ip), vehicle: saline
[7] = dose: 400.0 mg/kg/injection, schedule: Q04DX003 (ip), vehicle: saline
[8] = dose: 50.0 mg/kg/injection, schedule: Q01DX001 (ip), vehicle: saline
[9] = dose: 100.0 mg/kg/injection, schedule: Q01DX001 (ip), vehicle: saline
[10] = dose: 100.0 mg/kg/injection, schedule: Q04DX003 (ip), vehicle: saline with Tween-80
[11] = dose: 200.0 mg/kg/injection, schedule: Q04DX003 (ip), vehicle: saline with Tween-80
[12] = dose: 400.0 mg/kg/injection, schedule: Q04DX003 (ip), vehicle: saline with Tween-80
[13] = dose: 100.0 mg/kg/injection, schedule: Q01DX009 (ip), vehicle: saline
[14] = dose: 200.0 mg/kg/injection, schedule: Q01DX009 (ip), vehicle: saline
[15] = dose: 25.0 mg/kg/injection, schedule: Q04DX003 (ip), vehicle: saline
[16] = dose: 50.0 mg/kg/injection, schedule: Q04DX003 (ip), vehicle: saline

Measured: T/C

Cc1c(CCl)c(C)c(CCl)c(C)c1CCl
inactive: dose: 12.0 mg/kg/injection, schedule: Q04DX003 (ip), vehicle: Klucel (hydroxypropylcellulose) (HPC) 105 % of control | [1] 88 % of control | [2] 100 % of control | [3] 100 % of control | [4] 100 % of control

CCC1c2ccc3cc(OC)ccc3c2CC1CC(=O)O (configuration not stated)
inactive: [5] 92 % of control | [6] 92 % of control | [7] 86 % of control

COCC1CCCCC1O (configuration not stated)
inactive: [8] 101 % of control | [9] 95 % of control | dose: 200.0 mg/kg/injection, schedule: Q01DX001 (ip), vehicle: saline 101 % of control | dose: 400.0 mg/kg/injection, schedule: Q01DX001 (ip), vehicle: saline 98 % of control

CN(C(=O)Cl)c1ccccc1
inactive: dose: 12.5 mg/kg/injection, schedule: Q01DX009 (ip), vehicle: Klucel (hydroxypropylcellulose) (HPC) 95 % of control | dose: 12.5 mg/kg/injection, schedule: Q04DX003 (ip), vehicle: Klucel (hydroxypropylcellulose) (HPC) 95 % of control | [1] 95 % of control | [2] 97 % of control | [3] 93 % of control | [4] 93 % of control

NC(N)=N/N=C/c1cccc(Cl)c1
inactive: dose: 3.75 mg/kg/injection, schedule: Q01DX Z (ip), vehicle: saline 92 % of control | dose: 7.5 mg/kg/injection, schedule: Q01DX Z (ip), vehicle: saline 94 % of control | dose: 15.0 mg/kg/injection, schedule: Q01DX Z (ip), vehicle: saline 94 % of control | dose: 15.0 mg/kg/injection, schedule: Q01DX Z (oral), vehicle: saline 98 % of control | dose: 30.0 mg/kg/injection, schedule: Q01DX Z (ip), vehicle: saline 100 % of control | dose: 30.0 mg/kg/injection, schedule: Q01DX Z (oral), vehicle: saline 98 % of control | dose: 60.0 mg/kg/injection, schedule: Q01DX Z (oral), vehicle: saline 98 % of control | dose: 120.0 mg/kg/injection, schedule: Q01DX Z (oral), vehicle: saline 102 % of control

O=C(O)CCCCCCCCCCCCCCCO
inactive: [10] 96 % of control | [11] 96 % of control | [12] 91 % of control

Fc1ccc(/C=N\N=C(N/N=C/c2ccc(F)cc2)N/N=C/c2ccc(F)cc2)cc1
inactive: dose: 12.5 mg/kg/injection, schedule: Q04DX003 (ip), vehicle: saline with Tween-80 101 % of control | dose: 15.0 mg/kg/injection, schedule: Q01DX Z (ip), vehicle: carboxymethylcellulose (CMC) 97 % of control | dose: 25.0 mg/kg/injection, schedule: Q04DX003 (ip), vehicle: saline with Tween-80 101 % of control | dose: 30.0 mg/kg/injection, schedule: Q01DX Z (ip), vehicle: carboxymethylcellulose (CMC) 97 % of control | dose: 30.0 mg/kg/injection, schedule: Q01DX Z (oral), vehicle: carboxymethylcellulose (CMC) 100 % of control | dose: 50.0 mg/kg/injection, schedule: Q04DX003 (ip), vehicle: saline with Tween-80 104 % of control | dose: 60.0 mg/kg/injection, schedule: Q01DX Z (ip), vehicle: carboxymethylcellulose (CMC) 101 % of control | dose: 60.0 mg/kg/injection, schedule: Q01DX Z (oral), vehicle: carboxymethylcellulose (CMC) 93 % of control and 100 % of control | dose: 100.0 mg/kg/injection, schedule: Q04DX003 (ip), vehicle: Klucel (hydroxypropylcellulose) (HPC) 90 % of control | dose: 120.0 mg/kg/injection, schedule: Q01DX Z (ip), vehicle: carboxymethylcellulose (CMC) 89 % of control | dose: 120.0 mg/kg/injection, schedule: Q01DX Z (oral), vehicle: carboxymethylcellulose (CMC) 98 % of control and 100 % of control | dose: 200.0 mg/kg/injection, schedule: Q04DX003 (ip), vehicle: Klucel (hydroxypropylcellulose) (HPC) 100 % of control | dose: 240.0 mg/kg/injection, schedule: Q01DX Z (oral), vehicle: carboxymethylcellulose (CMC) 102 % of control and 105 % of control | dose: 400.0 mg/kg/injection, schedule: Q04DX003 (ip), vehicle: Klucel (hydroxypropylcellulose) (HPC) 87 % of control

C[N+](C)(C)CC(=O)[O-]
inactive: [13] 108 % of control | [5] 103 % of control | [14] 91 % of control | [6] 94 % of control

O=C(NCCCCCCNC(=O)NS(=O)(=O)c1ccccc1)NS(=O)(=O)c1ccccc1
inactive: dose: 50.0 mg/kg/injection, schedule: Q01DX001 (ip), vehicle: carboxymethylcellulose (CMC) 119 % of control | dose: 100.0 mg/kg/injection, schedule: Q01DX001 (ip), vehicle: carboxymethylcellulose (CMC) 102 % of control | dose: 200.0 mg/kg/injection, schedule: Q01DX001 (ip), vehicle: carboxymethylcellulose (CMC) 107 % of control | dose: 400.0 mg/kg/injection, schedule: Q01DX001 (ip), vehicle: carboxymethylcellulose (CMC) 105 % of control

CSc1nc2[nH]cc(C(=O)O)c(=O)c2c(=O)[nH]1
inactive: [5] 104 % of control | [6] 101 % of control | [7] 91 % of control

CC(=O)OCC1OC(N2C(=O)/C(=C(/C)c3ccco3)SC2=S)C(OC(C)=O)C(OC(C)=O)C1OC(C)=O (configuration not stated)
inactive: dose: 25.0 mg/kg/injection, schedule: Q01DX005 (ip), vehicle: other 103 % of control | dose: 50.0 mg/kg/injection, schedule: Q01DX005 (ip), vehicle: other 98 % of control | dose: 100.0 mg/kg/injection, schedule: Q01DX005 (ip), vehicle: other 98 % of control | dose: 200.0 mg/kg/injection, schedule: Q01DX005 (ip), vehicle: other 98 % of control | dose: 400.0 mg/kg/injection, schedule: Q01DX005 (ip), vehicle: other 101 % of control

c1ccc(CC(Cc2ccccc2)c2nc3ccccc3s2)cc1
inactive: dose: 75.0 mg/kg/injection, schedule: Q01DX009 (ip), vehicle: saline 98 % of control | [5] 98 % of control | dose: 150.0 mg/kg/injection, schedule: Q01DX009 (ip), vehicle: saline 98 % of control | [6] 92 % of control | dose: 300.0 mg/kg/injection, schedule: Q01DX009 (ip), vehicle: saline 95 % of control | [7] 92 % of control

CC(C)=NN=C(C)C
inactive: dose: 12.5 mg/kg/injection, schedule: Q01DX001 (ip), vehicle: saline 101 % of control | dose: 12.5 mg/kg/injection, schedule: Q01DX009 (ip), vehicle: saline 101 % of control | dose: 25.0 mg/kg/injection, schedule: Q01DX001 (ip), vehicle: saline 99 % of control | dose: 25.0 mg/kg/injection, schedule: Q01DX009 (ip), vehicle: saline 100 % of control | [15] 100 % of control | [8] 111 % of control | [16] 102 % of control | [9] 110 % of control

CCN(CC)CC(=O)NCC(CCCCN1CCCCC1)(c1cccc2ccccc12)C(C)C (configuration not stated)
inactive: dose: 12.5 mg/kg/injection, schedule: Q04DX003 (ip), vehicle: saline 104 % of control | [15] 102 % of control | [16] 102 % of control

CCOC(=O)C(=CN1CCCC1)C(=O)OCC
inactive: [13] 104 % of control | [10] 98 % of control | [14] 109 % of control | [11] 98 % of control | dose: 400.0 mg/kg/injection, schedule: Q01DX009 (ip), vehicle: saline 96 % of control | [12] 93 % of control

Source: PubChem BioAssay AID248 (DTP/NCI, 2004)
